Laboratory results: ChEMBL document CHEMBL1671654, “In vivo activity of the pyrrolopyrazolyl-substituted oxazolidinone RWJ-416457” (Antimicrob Agents Chemother, 2009)
Converted amounts (≈) assume the structure as drawn. The source made the active and inactive calls. The rule behind the calls is not given here.

What was measured:
Staphylococcus aureus [1] = assay: Antibacterial activity against Methicillin-susceptible Staphylococcus aureus ATCC 13709 after 16 to 20 hrs by broth microdilution method; format: functional
Staphylococcus aureus [2] = assay: Antibacterial activity against community-associated methicillin-resistant Staphylococcus aureus OC8525 after 16 to 20 hrs by broth microdilution method; format: functional
Streptococcus pneumoniae [3] = assay: Antibacterial activity against penicillin-susceptible Streptococcus pneumoniae ATCC 6301 after 16 to 20 hrs by broth microdilution method; format: functional
Staphylococcus aureus [4] = assay: Antibacterial activity against Methicillin-susceptible Staphylococcus aureus ATCC 13709 after 16 to 20 hrs by broth microdilution method relative to Linezolid; format: functional
Streptococcus pneumoniae [5] = assay: Antibacterial activity against penicillin-susceptible Streptococcus pneumoniae ATCC 6301 after 16 to 20 hrs by broth microdilution method relative to Linezolid; format: functional
Staphylococcus aureus [6] = assay: Antibacterial activity against methicillin-susceptible Staphylococcus aureus ATCC 13709 infected in po dosed Swiss Webster mouse administered at 1 to 3 hrs post infection measured after 3 days; format: functional; conditions: ATCC 13709, po
Staphylococcus aureus [7] = assay: Antibacterial activity against community-associated methicillin-resistant Staphylococcus aureus OC8525 infected in po dosed Swiss Webster mouse administered at 1 to 3 hrs post infection measured after 3 days; format: functional
Streptococcus pneumoniae [8] = assay: Antibacterial activity against penicillin-susceptible Streptococcus pneumoniae ATCC 6301 infected in po dosed Swiss Webster mouse administered at 1 to 3 hrs post infection measured after 3 days; format: functional; conditions: ATCC 6301, po
Staphylococcus aureus [9] = assay: Antibacterial activity against methicillin-susceptible Staphylococcus aureus ATCC 13709 infected in sc dosed Swiss Webster mouse administered at 1 to 3 hrs post infection measured after 3 days; format: functional; conditions: ATCC 13709, sc
Staphylococcus aureus [10] = assay: Antibacterial activity against community-associated methicillin-resistant Staphylococcus aureus OC8525 infected in sc dosed Swiss Webster mouse administered at 1 to 3 hrs post infection measured after 3 days; format: functional
Streptococcus pneumoniae [11] = assay: Antibacterial activity against penicillin-susceptible Streptococcus pneumoniae ATCC 6301 infected in sc dosed Swiss Webster mouse administered at 1 to 3 hrs post infection measured after 3 days; format: functional; conditions: ATCC 6301, sc
Staphylococcus aureus [12] = assay: Antibacterial activity against methicillin-susceptible Staphylococcus aureus ATCC 13709 infected in iv dosed Swiss Webster mouse administered at 1 to 3 hrs post infection measured after 3 days; format: functional; conditions: ATCC 13709, iv
Staphylococcus aureus [13] = assay: Antibacterial activity against community-associated methicillin-resistant Staphylococcus aureus OC8525 infected in iv dosed Swiss Webster mouse administered at 1 to 3 hrs post infection measured after 3 days; format: functional
Streptococcus pneumoniae [14] = assay: Antibacterial activity against penicillin-susceptible Streptococcus pneumoniae ATCC 6301 infected in iv dosed Swiss Webster mouse administered at 1 to 3 hrs post infection measured after 3 days; format: functional; conditions: ATCC 6301, iv
Staphylococcus aureus [15] = assay: Antibacterial activity against methicillin-susceptible Staphylococcus aureus Smith ATCC 13709 infected in SKH1 mouse assessed as log reduction in CFU/g skin at => 80 mg/kg/day, po administered post infection measured after 48 hrs; format: functional
Staphylococcus aureus [16] = assay: Antibacterial activity against methicillin-susceptible Staphylococcus aureus Smith ATCC 13709 infected in SKH1 mouse assessed as log reduction in CFU/g skin at 5 mg/kg/day, po administered post infection measured after 48 hrs; format: functional, organism-based
Staphylococcus aureus [17] = assay: Bacteriostatic activity against methicillin-susceptible Staphylococcus aureus Smith ATCC 13709 infected in SKH1 mouse at 20 mg/kg/day, po administered post infection measured after 48 hrs; format: functional, organism-based
Staphylococcus aureus [18] = assay: Antibacterial activity against community-associated methicillin-resistant Staphylococcus aureus OC8525 infected in SKH1 mouse assessed as log reduction in CFU/g skin at 5 mg/kg/day, po administered post infection measured after 48 hrs; format: functional, organism-based
Staphylococcus aureus [19] = assay: Antibacterial activity against community-associated methicillin-resistant Staphylococcus aureus OC8525 infected in SKH1 mouse assessed as log reduction in CFU/g skin up to 320 mg/kg/day, po administered post infection measured after 48 hrs; format: functional
Streptococcus pneumoniae [20] = assay: Antibacterial activity against penicillin-susceptible Streptococcus pneumoniae ATCC 6301 infected in po dosed CF-1 mouse administered at 24 hrs post infection measured after 48 hrs relative to Linezolid; format: functional
[21] = AUC (0 to 24 hrs) in CF-1 mouse at 2 mg/kg, iv; format: ADME, organism-based; design: time < 24 hr, dose 2 mg/kg, route intravenous; conditions: plasma
[22] = AUC (0 to 24 hrs) in CF-1 mouse at 10 mg/kg, sc; format: ADME, organism-based; design: time < 24 hr, dose 10 mg/kg, route subcutaneous; conditions: plasma
[23] = AUC (0 to 24 hrs) in CF-1 mouse at 10 mg/kg, po; format: ADME, organism-based; design: time < 24 hr, dose 10 mg/kg, route oral; conditions: plasma
Mus musculus [24] = assay: fAUC (0 to 24 hrs) in CF-1 mouse at 2 mg/kg, iv; format: ADME, organism-based; design: dose 2 mg/kg, route intravenous; conditions: in vivo
Mus musculus [25] = assay: fAUC (0 to 24 hrs) in CF-1 mouse at 10 mg/kg, sc; format: ADME, organism-based; design: dose 10 mg/kg, route subcutaneous; conditions: in vivo
Mus musculus [26] = assay: fAUC (0 to 24 hrs) in CF-1 mouse at 10 mg/kg, po; format: ADME, organism-based; design: dose 10 mg/kg, route oral; conditions: in vivo
[27] = Cmax in CF-1 mouse at 2 mg/kg, iv; format: ADME, organism-based; design: dose 2 mg/kg, route intravenous; conditions: in vivo
[28] = Cmax in CF-1 mouse at 10 mg/kg, sc; format: ADME, organism-based; design: dose 10 mg/kg, route subcutaneous; conditions: in vivo
[29] = Cmax in CF-1 mouse at 10 mg/kg, po; format: ADME, organism-based; design: dose 10 mg/kg, route oral; conditions: in vivo
Mus musculus [30] = assay: fCmax in CF-1 mouse at 2 mg/kg, iv; format: ADME, organism-based; design: dose 2 mg/kg, route intravenous; conditions: in vivo
Mus musculus [31] = assay: fCmax in CF-1 mouse at 10 mg/kg, sc; format: ADME, organism-based; design: dose 10 mg/kg, route subcutaneous; conditions: in vivo
Mus musculus [32] = assay: fCmax in CF-1 mouse at 10 mg/kg, po; format: ADME, organism-based; design: dose 10 mg/kg, route oral; conditions: in vivo
[33] = Tmax in CF-1 mouse serum at 10 mg/kg, sc; format: ADME, organism-based; design: dose 10 mg/kg, route subcutaneous
[34] = Tmax in CF-1 mouse serum at 10 mg/kg, po; format: ADME, organism-based; design: dose 10 mg/kg, route oral
[35] = Half life in CF-1 mouse at 2 mg/kg, iv; format: ADME, organism-based; design: dose 2 mg/kg, route intravenous; conditions: in vivo
[36] = Half life in CF-1 mouse at 10 mg/kg, sc; format: ADME, organism-based; design: dose 10 mg/kg, route subcutaneous; conditions: in vivo
[37] = Half life in CF-1 mouse at 10 mg/kg, po; format: ADME, organism-based; design: dose 10 mg/kg, route oral; conditions: in vivo
[38] = Clearance in CF-1 mouse at 2 mg/kg, iv; format: ADME, organism-based; design: dose 2 mg/kg, route intravenous; conditions: in vivo
[39] = Apparent oral clearance in CF-1 mouse at 10 mg/kg, sc; format: ADME, organism-based; design: dose 10 mg/kg, route oral; conditions: in vivo
[40] = Apparent oral clearance in CF-1 mouse at 10 mg/kg, po; format: ADME, organism-based; design: dose 10 mg/kg, route oral; conditions: in vivo
[41] = Ratio of fAUC (24 hrs) for Methicillin-susceptible Staphylococcus aureus ATCC 13709 infected po dosed mouse to MIC for Methicillin-susceptible Staphylococcus aureus ATCC 1370; format: functional
[42] = Ratio of fAUC (24 hrs) for Methicillin-susceptible Staphylococcus aureus ATCC 13709 infected sc dosed mouse to MIC for Methicillin-susceptible Staphylococcus aureus ATCC 1370; format: functional
[43] = Ratio of fAUC (24 hrs) for Methicillin-susceptible Staphylococcus aureus ATCC 13709 infected iv dosed mouse to MIC for Methicillin-susceptible Staphylococcus aureus ATCC 1370; format: functional
[44] = Ratio of fAUC (24 hrs) for community-associated methicillin-resistant Staphylococcus aureus OC8525 infected po dosed mouse to MIC for community-associated methicillin-resistant Staphylococcus aureus OC8525; format: functional
[45] = Ratio of fAUC (24 hrs) for community-associated methicillin-resistant Staphylococcus aureus OC8525 infected sc dosed mouse to MIC for community-associated methicillin-resistant Staphylococcus aureus OC8525; format: functional
[46] = Ratio of fAUC (24 hrs) for community-associated methicillin-resistant Staphylococcus aureus OC8525 infected iv dosed mouse to MIC for community-associated methicillin-resistant Staphylococcus aureus OC8525; format: functional
[47] = Ratio of fAUC (24 hrs) for penicillin-susceptible Streptococcus pneumoniae ATCC 6301 infected po dosed mouse to MIC for penicillin-susceptible Streptococcus pneumoniae ATCC 6301; format: functional
[48] = Ratio of fAUC (24 hrs) for penicillin-susceptible Streptococcus pneumoniae ATCC 6301 infected sc dosed mouse to MIC for penicillin-susceptible Streptococcus pneumoniae ATCC 6301; format: functional
[49] = Ratio of fAUC (24 hrs) for penicillin-susceptible Streptococcus pneumoniae ATCC 6301 infected iv dosed mouse to MIC for penicillin-susceptible Streptococcus pneumoniae ATCC 6301; format: functional
Staphylococcus aureus [50] = assay: Antibacterial activity against Methicillin-susceptible Staphylococcus aureus assessed as skin lesion size; format: functional
Staphylococcus aureus [51] = assay: Antibacterial activity against Methicillin-resistant Staphylococcus aureus assessed as skin lesion size; format: functional

## CC(=O)NC[C@H]1CN(c2ccc(N3Cc4cn(C)nc4C3)c(F)c2)C(=O)O1
Staphylococcus aureus [1]
  MIC: 1 µg/mL (≈ 2.68 µM)
Staphylococcus aureus [2]
  MIC: 2 µg/mL (≈ 5.36 µM)
Streptococcus pneumoniae [3]
  MIC: 1 µg/mL (≈ 2.68 µM)
Staphylococcus aureus [4]
  fold change (FC): 2
Streptococcus pneumoniae [5]
  fold change (FC): 2
Staphylococcus aureus [6]
  ED50: 3.4 mg/kg/day
Staphylococcus aureus [7]
  ED50: 2.1 mg/kg/day
Streptococcus pneumoniae [8]
  ED50: 3.1 mg/kg/day
Staphylococcus aureus [9]
  ED50: 4.7 mg/kg/day
Staphylococcus aureus [10]
  ED50: 3.5 mg/kg/day
Streptococcus pneumoniae [11]
  ED50: 9.3 mg/kg/day
Staphylococcus aureus [12]
  ED50: 4 mg/kg/day
Staphylococcus aureus [13]
  ED50: 1.5 mg/kg/day
Streptococcus pneumoniae [14]
  ED50: 18 mg/kg/day
Staphylococcus aureus [15]
  FC: 0.9
Staphylococcus aureus [16]
  Activity: inactive
Staphylococcus aureus [17]
  Activity: Active
Staphylococcus aureus [18]
  Activity: inactive
Staphylococcus aureus [19]
  FC: 1
Streptococcus pneumoniae [20]
  fold change (FC): 2
Streptococcus pneumoniae [20]; Streptococcus pneumoniae, ATCC 6301, po
  ED50: 3.1 mg/kg/day
[21]
  AUC(0-t) at 24 h: 3200 ng·h/mL
[22]
  AUC(0-t) at 24 h: 15000 ng·h/mL
[23]
  AUC(0-t) at 24 h: 23000 ng·h/mL
Mus musculus [24]
  fAUC: 1700 ng·h/mL
Mus musculus [25]
  fAUC: 8300 ng·h/mL
Mus musculus [26]
  fAUC: 13000 ng·h/mL
[27]
  Cmax: 4400 ng/mL
[28]
  Cmax: 7500 ng/mL
[29]
  Cmax: 3500 ng/mL
Mus musculus [30]
  fCmax: 2.4 µg/mL
Mus musculus [31]
  fCmax: 4.1 µg/mL
Mus musculus [32]
  fCmax: 1.9 µg/mL
[33]
  Tmax: 0.5 h
[34]
  Tmax: 2 h
[35]
  half-life: 1.5 h
[36]
  half-life: 2 h
[37]
  half-life: 3.4 h
[38]
  clearance: 10.5 mL/min/kg
[39]
  CL/F: 10.8 mL/min/kg
[40]
  CL/F: 7.17 mL/min/kg
[41]
  fAUC/MIC: 13
[42]
  fAUC/MIC: 8.3
[43]
  fAUC/MIC: 8.6
[44]
  fAUC/MIC: 6.3
[45]
  fAUC/MIC: 4.1
[46]
  fAUC/MIC: 4.3
[47]
  fAUC/MIC: 13
[48]
  fAUC/MIC: 8.3
[49]
  fAUC/MIC: 8.6
Staphylococcus aureus [50]
  Activity: 14%
Staphylococcus aureus [51]
  Activity: 23%
